pEC50: −log10 of the molar value. Read-outs that look alike come from different tables or passages of the source.
Assays:
[1] = target: T1, human thyroid receptor beta ligand-binding domain (LBD) (Homo sapiens, UniProt P10828); test: TR-FRET thyroid receptor beta coactivator assay (THR biochemical assay, Assay 1); conditions: for pEC50: THR-beta, TR-FRET coactivator assay, read-out: Activity category Assay 1 (EC50, THR-beta agonist); for Emax: read-out: Activity category Assay 1 THRβ (Emax)
T1 construct: purchased Invitrogen
T1 sequence (P10828 217-461 limits assumed): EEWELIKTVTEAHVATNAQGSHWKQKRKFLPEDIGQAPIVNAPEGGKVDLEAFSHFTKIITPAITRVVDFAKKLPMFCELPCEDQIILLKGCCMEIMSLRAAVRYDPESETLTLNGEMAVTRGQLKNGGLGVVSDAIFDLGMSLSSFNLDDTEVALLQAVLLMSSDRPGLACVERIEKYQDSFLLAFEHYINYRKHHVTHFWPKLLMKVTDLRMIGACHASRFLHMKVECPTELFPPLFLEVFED
Text: (§1) The TR-FRET thyroid receptor beta coactivator assay was used with slight, optimized modifications of the manufacturer's protocol (Invitrogen). The assay uses a terbium-labeled anti-GST antibody, a glutathione-S-transferase (GST) tagged human thyroid receptor, beta or alpha, ligand-binding domain (LBD), and a fluorescein labeled SRC2-2 coactivator peptide. […] The energy transfer is detected as an increase in the fluorescence emission of the fluorescein acceptor, and a decrease in the fluorescence emission of the terbium donor. The assay is performed in a 384-well black plate in a final volume of 20 μL. Serial dilution of various test agonists was performed in DMSO (1% final DMSO concentration) and added to the test plate. Thyroid receptor beta LBD is added to the plate at a final concentration of 1 nM, followed by the mixture of the fluorescein labeled SRC2-2 coactivator peptide, and the terbium-labeled anti-GST antibody at final concentrations of 200 nM and 2 nM respectively. The assay is incubated for 1 hr at rt protected from light.

[2] = target: T2, human thyroid receptor alpha ligand-binding domain (LBD) (Homo sapiens, UniProt P10827); test: TR-FRET thyroid receptor alpha coactivator assay (THR biochemical assay, Assay 1); conditions: for pEC50: Table 4, THR-alpha, read-out: Activity category Assay 1 (EC50, THR-alpha agonist activity); for Emax: Table 5, THRα, read-out: Activity category Assay 1 THRα (Emax)
T2 construct: purchased Invitrogen
Text: as §1

THR beta = target: T3, THR beta (Homo sapiens, UniProt P10828); test: HEK293T THR beta/RXR luciferase reporter assay (Assay 2); format: cell-based; conditions: for Emax: HEK-293T, read-out: Activity category Assay 2 THRβ (Emax); for pEC50: THR-beta, HEK293T reporter assay, read-out: Activity category Assay 2 (EC50, THR-beta agonist)
T3 construct: expressed in transfected cells; host or cells: HEK293T (ATCC CRL-3216)
T3 sequence (P10828 1-461): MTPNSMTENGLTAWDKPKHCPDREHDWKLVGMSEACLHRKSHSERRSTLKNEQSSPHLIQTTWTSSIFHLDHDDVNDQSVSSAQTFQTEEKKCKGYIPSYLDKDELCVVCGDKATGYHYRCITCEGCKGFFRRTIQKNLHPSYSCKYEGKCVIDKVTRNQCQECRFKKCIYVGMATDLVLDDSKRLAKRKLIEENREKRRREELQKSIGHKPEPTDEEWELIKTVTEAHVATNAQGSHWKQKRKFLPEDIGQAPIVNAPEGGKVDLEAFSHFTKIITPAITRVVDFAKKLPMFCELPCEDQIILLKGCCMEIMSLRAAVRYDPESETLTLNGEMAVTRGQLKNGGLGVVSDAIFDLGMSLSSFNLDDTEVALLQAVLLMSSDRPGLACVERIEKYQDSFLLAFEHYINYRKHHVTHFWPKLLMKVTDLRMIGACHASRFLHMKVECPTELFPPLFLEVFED
T3 sequence (P19793 1-462 partner): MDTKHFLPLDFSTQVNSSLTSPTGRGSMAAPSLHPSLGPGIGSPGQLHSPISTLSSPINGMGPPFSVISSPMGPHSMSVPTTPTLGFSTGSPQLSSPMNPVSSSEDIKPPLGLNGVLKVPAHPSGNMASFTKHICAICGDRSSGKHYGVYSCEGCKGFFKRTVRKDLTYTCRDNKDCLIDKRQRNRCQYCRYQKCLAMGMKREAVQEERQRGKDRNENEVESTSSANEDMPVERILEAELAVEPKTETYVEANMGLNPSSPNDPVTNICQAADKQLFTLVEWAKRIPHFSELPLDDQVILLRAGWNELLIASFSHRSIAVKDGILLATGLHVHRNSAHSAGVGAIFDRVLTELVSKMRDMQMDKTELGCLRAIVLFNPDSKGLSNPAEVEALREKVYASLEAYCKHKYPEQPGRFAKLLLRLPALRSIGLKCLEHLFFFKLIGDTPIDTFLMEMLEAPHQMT
Protocol: (§2) HEK293T Reporter THRalpha/Beta/RXR Reporter Assay (Assay 2)
(§3) The purpose of this assay is to evaluate the effect of compounds on the thyroid hormone nuclear receptor pathway in HEK293T cells. To this end, HEK293T cells are transiently transfected with a luciferase reporter under the control of the thyroid response element (TRE), an RXR expression plasmid and either a THR alpha or THR beta expression plasmid. Transfected cells are stimulated with test compounds for 18-24 hours before activation of the thyroid hormone pathway is measured via a luciferase read-out.
(§4) Procedure. […] Ten five-fold dilutions of test compounds are prepared in DMSO and 30 nL are dispensed to the cells. […] Approximately 18-24 h after compound addition, 384 well plates are allowed to adjust to rt, 30 μL One-Glo (Promega catalog #E6120) is added to each well and luminescence is measured on a Perkin Elmer Enspire plate reader. Percent agonism is calculated using the following equation: 100× (sample-negative control)/(positive control-negative control).

THR alpha = target: T4, THR alpha (Homo sapiens, UniProt P10827); test: HEK293T THR alpha/RXR luciferase reporter assay (Assay 2); format: cell-based; conditions: Assay 2; for Emax: HEK-293T, Table 5, THRα, read-out: Activity category Assay 2 THRα (Emax); for pEC50: Table 4, THR-alpha, read-out: Activity category Assay 2 (EC50, THR-alpha agonist activity)
T4 construct: expressed in transfected cells; host or cells: HEK293T (ATCC CRL-3216)
T4 sequence (P10827 1-410 isoform P10827-2): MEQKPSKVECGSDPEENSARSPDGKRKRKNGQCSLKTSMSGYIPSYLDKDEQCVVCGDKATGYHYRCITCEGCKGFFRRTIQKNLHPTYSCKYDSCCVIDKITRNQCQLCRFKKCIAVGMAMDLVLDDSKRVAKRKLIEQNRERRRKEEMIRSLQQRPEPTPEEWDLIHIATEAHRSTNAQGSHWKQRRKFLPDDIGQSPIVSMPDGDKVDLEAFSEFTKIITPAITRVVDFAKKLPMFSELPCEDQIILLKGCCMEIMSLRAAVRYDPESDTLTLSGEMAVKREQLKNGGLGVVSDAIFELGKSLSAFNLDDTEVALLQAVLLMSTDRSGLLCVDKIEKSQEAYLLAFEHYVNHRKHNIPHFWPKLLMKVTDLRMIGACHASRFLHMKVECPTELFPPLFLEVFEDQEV
T4 sequence (P19793 1-462 partner): T3 sequence (P19793 1-462 partner)
Protocol: as §2, §3, §4

| Structure (SMILES) | pEC50 [1] | pEC50 [2] | Emax [2] [%] | pEC50 (THR beta) | Emax (THR alpha) [%] | pEC50 (THR alpha) | Emax ([1]; Table 5, Assay 1, THRβ) [%] | Emax (THR beta; Table 5, Assay 2, THRβ) [%] | Emax [1] [%] | Emax (THR beta) [%] |
| --- | --- | --- | --- | --- | --- | --- | --- | --- | --- | --- |
| COC(=O)c1c[nH]c2ccc(Oc3c(Cl)cc(-n4nc(C#N)c(=O)[nH]c4=O)cc3Cl)cc12 [Compound 4, methyl 5-[2,6-dichloro-4-(6-cyano-3,5-dioxo-4H-1,2,4-triazin-2-yl)phenoxy]-1H-indole-3-carboxylate] | > 7.30 | < 4.60 | < 50 | 5.00 to 6.00 | 50 to 75 | < 5.00 |  |  | < 50 | > 75 |
| N#Cc1nn(-c2cc(Cl)c(Oc3ccc4[nH]cc(C5CCCC5)c4c3)c(Cl)c2)c(=O)[nH]c1=O [Compound 5, 2-[3,5-dichloro-4-[(3-cyclopentyl-1H-indol-5-yl)oxy]phenyl]-3,5-dioxo-4H-1,2,4-tri-azine-6-carbonitrile] | > 7.30 | < 4.60 | < 50 | 6.00 to 6.60 | 50 to 75 | 5.00 to 6.00 | < 50 | > 75 |  |  |
| N#Cc1nn(-c2cc(Cl)c(Oc3ccc4[nH]cc(C#N)c4c3)c(Cl)c2)c(=O)[nH]c1=O [Compound 17, 5-[2,6-dichloro-4-(6-cyano-3,5-dioxo-4H-1,2,4-triazin-2-yl)phenoxy]-1H-indole-3-carbonitrile] | > 7.30 | < 4.60 | < 50 | 5.00 to 6.00 | < 50 | < 5.00 | < 50 | > 75 |  |  |
| CCCc1c[nH]c2ccc(Oc3c(Cl)cc(-n4nc(C#N)c(=O)[nH]c4=O)cc3Cl)nc12 [Compound 19] | > 7.30 | < 4.60 | < 50 | 5.00 to 6.00 | < 50 | 5.00 to 6.00 | < 50 | > 75 |  |  |
| CC(C)NC(=O)c1c[nH]c2ccc(Oc3c(Cl)cc(-n4nc(C#N)c(=O)[nH]c4=O)cc3Cl)cc12 [Compound 20] | < 4.60 | < 4.60 | < 50 | < 5.00 | < 50 | < 5.00 | < 50 | < 50 |  |  |
| CC(C)c1cc(Oc2c(Cl)cc(-c3nn(C(F)F)c(=O)[nH]c3=O)cc2Cl)n[nH]c1=O [Compound 28, 6-[3,5-dichloro-4-[(5-isopropyl-6-oxo-1H-pyridazin-3-yl)oxy]phenyl]-2-(difluoromethyl)-4H-1,2,4-triazine-3,5-dione] | 6.60 to 7.30 | 6.00 to 6.60 | 50 to 75 | 6.00 to 6.60 | 50 to 75 | 5.00 to 6.00 | < 50 | > 75 |  |  |
| CCCCCc1n[nH]c2ccc(Cc3c(C)cc(-n4nc(C#N)c(=O)[nH]c4=O)cc3C)cc12 [Compound 32] | > 7.30 | > 7.30 | 50 to 75 | 6.60 to 7.30 | > 75 | 6.60 to 7.30 | > 75 | > 75 |  |  |
| Cc1c(-n2nc(N)c(=O)[nH]c2=O)cc(Cl)c(Oc2cc(C(C)C)c(=O)[nH]n2)c1Cl [Compound 35, 6-amino-2-[3,5-dichloro-4-[(5-isopropyl-6-oxo-1H-pyridazin-3-yl)oxy]-2-methyl-phenyl]-4H-1,2,4-triazine-3,5-dione] | 4.60 to 6.00 | 4.60 to 6.00 | 50 to 75 | 5.00 to 6.00 | < 50 | 5.00 to 6.00 | 50 to 75 | 50 to 75 |  |  |

More lines, main results first:

| pEC50 [1] | pEC50 [2] | Emax [2] [%] | pEC50 (THR beta) | Emax (THR alpha) [%] | pEC50 (THR alpha) | Emax ([1]; Table 5, Assay 1, THRβ) [%] | Emax (THR beta; Table 5, Assay 2, THRβ) [%] | Structure (SMILES) | Emax [1] [%] | Emax (THR beta) [%] |
| --- | --- | --- | --- | --- | --- | --- | --- | --- | --- | --- |
| > 7.30 | 6.60 to 7.30 | 50 to 75 | > 7.30 | < 50 | > 7.30 | 50 to 75 | 50 to 75 | CC(C)c1cc(Cc2c(Cl)cc(-n3nc(N)c(=O)[nH]c3=O)cc2Cl)n[nH]c1=O [Compound 36, 6-Amino-2-[3,5-dichloro-4-[(5-isopropyl-6-oxo-1H-pyridazin-3-yl)methyl]-phenyl]-4H-1,2,4-triazine-3,5-dione] |  |  |
| 6.60 to 7.30 | 6.00 to 6.60 | 50 to 75 | 6.60 to 7.30 | 50 to 75 | 6.60 to 7.30 | 50 to 75 | > 75 | Cc1cc(-n2nc(N)c(=O)[nH]c2=O)cc(Cl)c1Oc1cc(C(C)C)c(=O)[nH]n1 [Compound 37, 6-Amino-2-[3-chloro-4-[(5-isopropyl-6-oxo-1H-pyridazin-3-yl)oxy]-5-methyl-phenyl]-4H-1,2,4-triazine-3,5-dione] |  |  |
| 6.00 to 6.60 | 4.60 to 6.00 | > 75 | 6.00 to 6.60 | < 50 | < 5.00 | 50 to 75 | > 75 | Cc1cc(-n2nc(N)c(=O)[nH]c2=O)cc(C)c1Oc1cc(C(C)C)c(=O)[nH]n1 [Compound 38, 6-Amino-2-[4-[(5-isopropyl-6-oxo-1H-pyridazin-3-yl)oxy]-3,5-dimethylphenyl]-4H-1,2,4-triazine-3,5-dione] |  |  |
| > 7.30 | > 7.30 | 50 to 75 | > 7.30 | 50 to 75 | > 7.30 | 50 to 75 | > 75 | CC(C)c1c[nH]c2ccc(Oc3c(Cl)cc(-n4nc(N)c(=O)[nH]c4=O)cc3Cl)cc12 [Compound 41, 6-amino-2-[3,5-dichloro-4-[(3-isopropyl-1H-indol-5-yl)oxy]phenyl]-4H-1,2,4-triazine-3,5-dione] |  |  |
